What is called IC50 is the point on the concentration scale where inhibition reaches its midpoint.

The target of the first experiment is human autotaxin (Homo sapiens (Human), UniProt Q13822). Description: Human Autotaxin Assay. The class given is biochemical.
Conditions: not given
Here is the method: ATX activity is assayed in concentrated conditioned media from Hep3B human hepatocellular carcinoma cells by measuring the amount of choline released from the substrate, lysophosphatidylcholine (LPC) as it is cleaved to LPA. Conditioned media is collected from confluent Hep3B cells and concentrated 20-fold using Centriprep-30 filter devices (Millipore). […] 100 μl of a color mix containing 4.5 mM 4-aminoantipyrine, 2.7 mM N-ethyl-N-(2-hydroxy-3-sulfopropyl)-m-toluidine, 21 units/ml horseradish peroxidase and 3 units/ml choline oxidase in 50 mM Tris, pH 8, 4.5 mM MgCl2 is added and the incubation continued for 15 minutes at room temperature before reading the absorbance at 555 nm.
In turn, `N#C/C(=C\c1cn(Cc2ccc(F)cc2)c2nc(Cl)ccc12)c1ccc(C(=O)O)cc1` [Compound 3-3, (Z)-4-(2-(6-chloro-1-(4-fluorobenzyl)-1H-pyrrolo[2,3-b]pyridin-3-yl)-1-cyanovinyl)benzoic acid] returned an IC50 of 500 to 10000 nM.

Staying with this experiment, now noted: ATX in concentrated conditioned media from Hep3B cells; choline released from LPC substrate; read-out: IC50.
`CCCn1cc(-n2c(C)c(/C=C(\C#N)c3ccc(C(=O)O)cc3)c3ccsc32)cn1` [Compound 5-1, (Z)-4-(1-cyano-2-(5-methyl-6-(1-propyl-1H-pyrazol-4-yl)-6H-thieno[2,3-b]pyrrol-4-yl)vinyl)benzoic acid]: the IC50 was above 10000 nM. Consider `COc1ccc(Cn2cc(/C=C(\C#N)c3ccc(C(=O)O)cc3)c3cccnc32)cn1` [Compound 3-2, (Z)-4-(1-cyano-2-(1-((6-methoxypyridin-3-yl)methyl)-1H-pyrrolo[2,3-b]pyridin-3-yl)vinyl)benzoic acid], for which the IC50 was in the range of 500 to 10000 nM.

On to `N#C/C(=C\c1nn(Cc2ccccc2)c2cc(Cl)ccc12)c1ccc(C(=O)O)cc1` [Compound 1-2, (Z)-4-(2-(1-benzyl-6-chloro-1H-indazol-3-yl)-1-cyanovinyl)benzoic acid], for which the IC50 was below 500 nM.

In the case of `N#C/C(=C\c1nn(Cc2cc(C(F)(F)F)cc(C(F)(F)F)c2)c2cc(Cl)ccc12)c1ccc(C(=O)O)cc1` [Compound 1-4, (Z)-4-(2-(1-(3,5-bis(trifluoromethyl)benzyl)-6-chloro-1H-indazol-3-yl)-1-cyanovinyl)benzoic acid], the IC50 was 500 to 10000 nM. Regarding `Cn1ccc(Cn2nc(/C=C(\C#N)c3ccc(C(=O)O)cc3)c3ccc(Cl)cc32)n1` [Compound 1-5, (Z)-4-(2-(6-chloro-1-((1-methyl-1H-pyrazol-3-yl)methyl)-1H-indazol-3-yl)-1-cyanovinyl)benzoic acid], the concentration for half-maximal inhibition (IC50) is above 10000 nM. On to `O=C(O)c1ccc(/C=C/c2nn(Cc3ccc(F)cc3)c3cc(Cl)ccc23)cc1` [Compound 1-8, (E)-4-(2-(6-chloro-1-(4-fluorobenzyl)-1H-indazol-3-yl)vinyl)benzoic acid], for which the IC50 was 500 to 10000 nM.

Regarding `N#C/C(=C\c1nn(Cc2ccc(F)cc2)c2cc(Cl)ccc12)c1ccc(C(=O)O)cc1` [Compound 1-1, (Z)-4-(2-(6-chloro-1-(4-fluorobenzyl)-1H-indazol-3-yl)-1-cyanovinyl)benzoic acid], the IC50 is below 500 nM. For the molecule `COc1ccc(Cn2nc(/C=C(\C#N)c3ccc(C(=O)O)cc3)c3ccc(Cl)cc32)cn1` [Compound 1-7, (Z)-4-(2-(6-chloro-1-((6-methoxypyridin-3-yl)methyl)-1H-indazol-3-yl)-1-cyanovinyl)benzoic acid], the concentration for half-maximal inhibition (IC50) is below 500 nM.

For the molecule `N#C/C(=C\c1nn(Cc2ccc(Cl)nc2)c2cc(Cl)ccc12)c1ccc(C(=O)O)cc1` [Compound 1-6, (Z)-4-(2-(6-chloro-1-((6-chloropyridin-3-yl)methyl)-1H-indazol-3-yl)-1-cyanovinyl)benzoic acid], the half-inhibitory concentration (IC50) is below 500 nM. For `N#C/C(=C\c1cn(Cc2ccc(F)cc2)c2ncccc12)c1ccc(C(=O)O)cc1` [Compound 3-1, (Z)-4-(1-cyano-2-(1-(4-fluorobenzyl)-1H-pyrrolo[2,3-b]pyridin-3-yl)vinyl)benzoic acid], the IC50 is below 500 nM. The same measure, in the same setting: the result for `COc1ccc(Cn2cc(/C=C(\C#N)c3ccc(C(=O)O)cc3)c3ccc(Cl)nc32)cn1` [Compound 3-4, (Z)-4-(2-(6-chloro-1-((6-methoxypyridin-3-yl)methyl)-1H-pyrrolo[2,3-b]pyridin-3-yl)-1-cyanovinyl)benzoic acid] reads below 500 nM; that for `N#C/C(=C\c1nn(Cc2cc(Cl)cc(Cl)c2)c2cc(Cl)ccc12)c1ccc(C(=O)O)cc1` [Compound 1-3], 500 to 10000 nM.

The record behind these values is US9951026B2, “Heterocyclic vinyl autotaxin inhibitor compounds” (PharmAkea, Inc., priority 2013, dated 2018).
